Measurements reported in US11820766B2, “Monoacylglycerol lipase modulators” (Janssen Pharmaceutica NV, priority 2018, dated 2023).

Molecular target: T1, human MGL from HeLa cells (Homo sapiens, UniProt Q99685)
T1 construct: combining endogenously expressed MGL from HeLa cells with test compounds; endogenous in cells; host or cells: HeLa cells / cell homogenates
T1 sequence (Q99685 1-303): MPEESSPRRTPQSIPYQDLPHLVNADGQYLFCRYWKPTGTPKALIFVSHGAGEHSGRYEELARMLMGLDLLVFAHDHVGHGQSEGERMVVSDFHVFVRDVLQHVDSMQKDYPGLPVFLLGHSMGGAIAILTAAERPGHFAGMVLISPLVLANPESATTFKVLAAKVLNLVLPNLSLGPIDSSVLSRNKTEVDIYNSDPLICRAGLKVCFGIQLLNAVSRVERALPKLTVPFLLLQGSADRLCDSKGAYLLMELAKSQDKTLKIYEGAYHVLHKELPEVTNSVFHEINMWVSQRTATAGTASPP
Assay: In vitro MGL activity assay: [glycerol-1,3-3H]-oleyl glycerol cleavage by MGL from HeLa cells
Format: biochemical
Conditions: 300 nM [Glycerol-1,3-3H]-oleyl glycerol, one hour incubation
Description: MGL is the predominant hydrolase in HeLa cells/cell homogenates.

Row | SMILES | IC50 [nM]
1 | COc1ccc(C(=O)N2CCc3c(nn(C)c3-c3ccccc3)C2)cc1OC [Example 9, (3,4-Dimethoxyphenyl)(2-methyl-3-phenyl-2,4,5,7-tetrahydro-6H-pyrazolo[3,4-c]pyridin-6-yl)methanone] | 441
2 | COc1cccc(OC)c1C(=O)N1CCc2c(nn(C)c2-c2ccccc2)C1 [Example 10, (2,6-Dimethoxyphenyl)(2-methyl-3-phenyl-2,4,5,7-tetrahydro-6H-pyrazolo[3,4-c]pyridin-6-yl)methanone] | > 10000
3 | Cn1nc2c(c1-c1ccccc1)CCN(C(=O)c1cccc(O)c1Cl)C2 [Example 12, (2-Chloro-3-hydroxyphenyl)(2-methyl-3-phenyl-2,4,5,7-tetrahydro-6H-pyrazolo[3,4-c]pyridin-6-yl)methanone] | 3420
4 | COc1cccc(C(=O)N2CCc3c(nn(C)c3-c3ccccc3)C2)c1Cl [Example 13, (2-Chloro-3-methoxyphenyl)(2-methyl-3-phenyl-2,4,5,7-tetrahydro-6H-pyrazolo[3,4-c]pyridin-6-yl)methanone] | 16.8
5 | COc1c(Cl)cccc1C(=O)N1CCc2c(nn(C)c2-c2ccccc2)C1 [Example 14, (3-Chloro-2-methoxy-phenyl)-(2-methyl-3-phenyl-5,7-dihydro-4H-pyrazolo[3,4-c]pyridin-6-yl)methanone] | 2590
6 | Cc1c(C(=O)N2CCc3c(nn(C)c3-c3ccccc3)C2)cccc1N1CCOCC1 [Example 19, (2-Methyl-3-morpholinophenyl)(2-methyl-3-phenyl-2,4,5,7-tetrahydro-6H-pyrazolo[3,4-c]pyridin-6-yl)methanone] | 4820
7 | Cn1ncc(C(=O)N2CCc3c(nn(C)c3-c3ccccc3)C2)c1Cl [Example 20, (5-Chloro-1-methyl-1H-pyrazol-4-yl)(2-methyl-3-phenyl-2,4,5,7-tetrahydro-6H-pyrazolo[3,4-c]pyridin-6-yl)methanone] | 2090
8 | Cn1nc2c(c1-c1ccccc1)CCN(C(=O)c1cccc(OC(F)F)n1)C2 [Example 24, (6-(Difluoromethoxy)pyridin-2-yl)(2-methyl-3-phenyl-2,4,5,7-tetrahydro-6H-pyrazolo[3,4-c]pyridin-6-yl)methanone] | 2560
9 | Cn1nc2c(c1-c1ccccc1)CCN(C(=O)c1cccc(OC(F)(F)F)n1)C2 [Example 25, (2-Methyl-3-phenyl-2,4,5,7-tetrahydro-6H-pyrazolo[3,4-c]pyridin-6-yl)(6-(trifluoromethoxy)pyridin-2-yl)methanone] | 2430
10 | Cn1nc2c(c1-c1ccccc1)CCN(C(=O)c1cccc3c1OCO3)C2 [Example 28, Benzo[d][1,3]dioxol-4-yl(2-methyl-3-phenyl-2,4,5,7-tetrahydro-6H-pyrazolo[3,4-c]pyridin-6-yl)methanone] | 4000
11 | Cn1nc2c(c1-c1ccccc1)CCN(C(=O)c1ccc3c(c1)OCO3)C2 [Example 29, Benzo[d][1,3]dioxol-5-yl(2-methyl-3-phenyl-2,4,5,7-tetrahydro-6H-pyrazolo[3,4-c]pyridin-6-yl)methanone] | 1950
12 | Cn1nc2c(c1-c1ccccc1)CCN(C(=O)c1cccc3c1OC(F)(F)O3)C2 [Example 30, (2,2-Difluorobenzo[d][1,3]dioxol-4-yl)(2-methyl-3-phenyl-2,4,5,7-tetrahydro-6H-pyrazolo[3,4-c]pyridin-6-yl)methanone] | 1040
13 | Cn1nc2c(c1-c1ccccc1)CCN(C(=O)c1cc3[nH]ccc3s1)C2 [Example 31, (2-Methyl-3-phenyl-2,4,5,7-tetrahydro-6H-pyrazolo[3,4-c]pyridin-6-yl)(4H-thieno[3,2-b]pyrrol-2-yl)methanone] | 1230
14 | Cn1nc2c(c1-c1ccccc1)CCN(C(=O)c1cccc3ccoc13)C2 [Example 33, Benzofuran-7-yl(2-methyl-3-phenyl-2,4,5,7-tetrahydro-6H-pyrazolo[3,4-c]pyridin-6-yl)methanone] | 89.9
15 | Cn1nc2c(c1-c1ccccc1)CCN(C(=O)c1cccc3occc13)C2 [Example 34, Benzofuran-4-yl(2-methyl-3-phenyl-2,4,5,7-tetrahydro-6H-pyrazolo[3,4-c]pyridin-6-yl)methanone] | 300
16 | Cn1nc2c(c1-c1ccccc1)CCN(C(=O)c1ccc3occc3c1)C2 [Example 35, Benzofuran-5-yl(2-methyl-3-phenyl-2,4,5,7-tetrahydro-6H-pyrazolo[3,4-c]pyridin-6-yl)methanone] | 482
17 | Cn1nc2c(c1-c1ccccc1)CCN(C(=O)c1cccc3ccsc13)C2 [Example 37, Benzo[b]thiophen-7-yl(2-methyl-3-phenyl-2,4,5,7-tetrahydro-6H-pyrazolo[3,4-c]pyridin-6-yl)methanone] | 47.8
18 | Cn1nc2c(c1-c1ccccc1)CCN(C(=O)c1cccc3sccc13)C2 [Example 38, Benzo[b]thiophen-4-yl(2-methyl-3-phenyl-2,4,5,7-tetrahydro-6H-pyrazolo[3,4-c]pyridin-6-yl)methanone] | 68
19 | Cn1nc2c(c1-c1ccccc1)CCN(C(=O)c1csc3ccccc13)C2 [Example 40, Benzo[b]thiophen-3-yl(2-methyl-3-phenyl-2,4,5,7-tetrahydro-6H-pyrazolo[3,4-c]pyridin-6-yl)methanone] | 141
20 | Cn1nc2c(c1-c1ccccc1)CCN(C(=O)c1sc3ccccc3c1Cl)C2 [Example 41, (3-Chlorobenzo[b]thiophen-2-yl)(2-methyl-3-phenyl-2,4,5,7-tetrahydro-6H-pyrazolo[3,4-c]pyridin-6-yl)methanone] | 64.6
21 | Cn1nc2c(c1-c1ccccc1)CCN(C(=O)c1cccc3[nH]ccc13)C2 [Example 42, (1H-Indol-4-yl)(2-methyl-3-phenyl-2,4,5,7-tetrahydro-6H-pyrazolo[3,4-c]pyridin-6-yl)methanone] | 23.6
22 | Cn1nc2c(c1-c1ccccc1)CCN(C(=O)c1c[nH]c3ccccc13)C2 [Example 44, (1H-Indol-3-yl)(2-methyl-3-phenyl-2,4,5,7-tetrahydro-6H-pyrazolo[3,4-c]pyridin-6-yl)methanone] | 319

More lines, in order of falling IC50, values ahead:

Row | IC50 [nM] | SMILES
23 | 2460 | Cn1nc2c(c1-c1ccccc1)CCN(C(=O)c1cccc3c1NC(=O)CO3)C2 [Example 26, 5-(2-Methyl-3-phenyl-4,5,6,7-tetrahydro-2H-pyrazolo[3,4-c]pyridine-6-carbonyl)-2H-benzo[b][1,4]oxazin-3(4H)-one]
24 | 1460 | Cn1nc2c(c1-c1ccccc1)CCN(C(=O)c1cccc3cc[nH]c13)C2 [Example 45, (1H-Indol-7-yl)(2-methyl-3-phenyl-2,4,5,7-tetrahydro-6H-pyrazolo[3,4-c]pyridin-6-yl)methanone]
25 | 1400 | Cc1cccc(C(=O)N2CCc3c(nn(C)c3-c3ccccc3)C2)c1N [Example 17, (2-Amino-3-methylphenyl)(2-methyl-3-phenyl-2,4,5,7-tetrahydro-6H-pyrazolo[3,4-c]pyridin-6-yl)methanone]
26 | 1090 | Cc1nc2sccn2c1C(=O)N1CCc2c(nn(C)c2-c2ccccc2)C1 [Example 32, (2-Methyl-3-phenyl-2,4,5,7-tetrahydro-6H-pyrazolo[3,4-c]pyridin-6-yl)(6-methylimidazo[2,1-b]thiazol-5-yl)methanone]
27 | 847 | Cn1nc2c(c1-c1ccccc1)CCN(C(=O)c1ncn(-c3ccccc3)n1)C2 [Example 23, (2-Methyl-3-phenyl-2,4,5,7-tetrahydro-6H-pyrazolo[3,4-c]pyridin-6-yl)(1-phenyl-1H-1,2,4-triazol-3-yl)methanone]
28 | 750 | Cn1nc2c(c1-c1ccccc1)CCN(C(=O)c1coc3ccccc13)C2 [Example 36, Benzofuran-3-yl(2-methyl-3-phenyl-2,4,5,7-tetrahydro-6H-pyrazolo[3,4-c]pyridin-6-yl)methanone]
29 | 683 | Cn1nc2c(c1-c1ccccc1)CCN(C(=O)c1cnn(C)c1C1CC1)C2 [Example 22, (5-Cyclopropyl-1-methyl-1H-pyrazol-4-yl)(2-methyl-3-phenyl-2,4,5,7-tetrahydro-6H-pyrazolo[3,4-c]pyridin-6-yl)methanone]
30 | 671 | Cn1nc2c(c1-c1ccccc1)CCN(C(=O)c1ccccc1-n1cncn1)C2 [Example 18, (2-(1H-1,2,4-Triazol-1-yl)phenyl)(2-methyl-3-phenyl-2,4,5,7-tetrahydro-6H-pyrazolo[3,4-c]pyridin-6-yl)methanone]
31 | 290 | CN1CCOc2cc(C(=O)N3CCc4c(nn(C)c4-c4ccccc4)C3)ccc21 [Example 27, (4-Methyl-3,4-dihydro-2H-benzo[b][1,4]oxazin-7-yl)(2-methyl-3-phenyl-2,4,5,7-tetrahydro-6H-pyrazolo[3,4-c]pyridin-6-yl)methanone]
32 | 187 | COc1cc(OC)cc(C(=O)N2CCc3c(nn(C)c3-c3ccccc3)C2)c1 [Example 11, (3,5-Dimethoxyphenyl)-(2-methyl-3-phenyl-5,7-dihydro-4H-pyrazolo[3,4-c]pyridin-6-yl)methanone]
33 | 136 | Cn1nc2c(c1-c1ccccc1)CCN(C(=O)c1ccc3sccc3c1)C2 [Example 39, Benzo[b]thiophen-5-yl(2-methyl-3-phenyl-2,4,5,7-tetrahydro-6H-pyrazolo[3,4-c]pyridin-6-yl)methanone]
34 | 77.9 | COc1cc(Cl)cc(C(=O)N2CCc3c(nn(C)c3-c3ccccc3)C2)c1 [Example 16, (3-Chloro-5-methoxyphenyl)(2-methyl-3-phenyl-2,4,5,7-tetrahydro-6H-pyrazolo[3,4-c]pyridin-6-yl)methanone]
35 | 64.7 | Cn1nc2c(c1-c1ccccc1)CCN(C(=O)c1ccc3[nH]ccc3c1)C2 [Example 43, (1H-Indol-5-yl)(2-methyl-3-phenyl-2,4,5,7-tetrahydro-6H-pyrazolo[3,4-c]pyridin-6-yl)methanone]
